Measurements reported in article PMC7464159, “Triple Negative Breast Cancer and Breast Epithelial Cells Differentially Reprogram Glucose and Lipid Metabolism upon Treatment with Triterpenic Acids” (Biomolecules, 2020).

System: MCF-10A cells
Assay: 1H NMR metabolomics of polar (aqueous) cell extracts
Type: cell-based, human
Settings: for number of metabolites altered: 48 h
Method: MDA-MB-231 and MCF-10A cells were seeded in 10-cm-diameter Petri dishes at a density of 6 × 10^5 cells/mL (10 mL per dish) and cultured for 24 h at 37 °C. […] Vehicle solvent control cells received DMSO (0.10% v/v). Samples were collected immediately after 48 h incubation or, to assess cellular recovery, medium was replaced with fresh growth medium (without TAs), and cells were incubated for additional 24 h before collection (48 + 24 h samples). Four independent assays were performed.
After incubation, culture medium was collected and centrifuged (1000× g, 5 min) and the supernatant stored at −80 °C until analysis. Culture medium without cells was placed under the same conditions and collected. Cell extraction was performed as described by Carrola et al.. Briefly, cells were washed four times with PBS and extracted with a mixture of methanol:chloroform:water (1:1:0.7). The resulting polar and organic phases were collected and then dried under vacuum or under a stream of nitrogen gas, respectively. All samples were stored at −80 °C and, at the time of analysis, dried polar extracts were reconstituted in 600 µL of deuterated phosphate buffer (100 mM, pH 7.4) containing 0.1 mM TSP-d4, while organic extracts were reconstituted in deuterated chloroform containing 0.03% TMS. Regarding medium samples, 540 μL were mixed with 60 μL of D2O containing 0.25% TSP-d4. Prior to analysis, 550 μL of each sample were transferred to 5 mm NMR tubes.
^1H NMR spectra of all samples were acquired on a Bruker Avance III HD 500 NMR spectrometer (University of Aveiro, Portuguese NMR Network) operating at 500.13 MHz for ^1H observation equipped with a 5 mm TXI probe. Standard 1D spectra (Bruker pulse programs ‘noesypr1d’, with water suppression, for medium samples and aqueous extracts, and ‘zg’ for organic extracts) were recorded with a 7002.8 Hz spectral width, 32 k data points, a 2 s relaxation delay and 512 scans. Spectral processing comprised exponential multiplication with 0.3 Hz line broadening, zero filling to 64 k data points, manual phasing, baseline correction, and chemical shift calibration to the TSP or TMS signal at 0 ppm. 2D ^1H-^1H total correlation (TOCSY) spectra, ^1H-^13C heteronuclear single quantum correlation (HSQC) spectra and J-resolved spectra were also registered for selected samples to assist spectral assignment. Metabolites were identified with the support of 2D spectra and the spectral reference databases BBIOREFCODE-2-0-0 (Bruker Biospin, Rheinstetten, Germany) and HMDB [28]. Selected signals were then integrated using the AmixViewer software […] (version 3.9.14, Bruker BioSpin, Rheinstetten, Germany) and normalized by the total spectral area. The magnitude of each metabolite change was assessed through the percentage of variation (and its respective error) in exposed samples relatively to controls, and through the effect size (ES) adjusted for small sample numbers (and respective standard error). Metabolite variations with absolute ES greater than 0.8 were expressed in a heatmap, colored as a function of the percentage of variation, employing the R statistical software.

C[C@H]1[C@H](C)CC[C@]2(C(=O)O)CC[C@]3(C)C(=CC[C@@H]4[C@@]5(C)CC[C@H](O)C(C)(C)[C@@H]5CC[C@]43C)[C@H]12 [UA, ursolic acid]
1-MethyInicotinamide %var (UA 10µM, 48h): 38.46% | 3-Hydroxyisobutyrate %var (UA 10µM, 48h): -23.71% | ATP %var (UA 10µM, 48h): 41.52% | Acetate %var (UA 10µM, 48h): 0% | Ala %var (UA 10µM, 48h): 44.32% | Asp %var (UA 10µM, 48h): -38.30% | Choline %var (UA 10µM, 48h): 31.99% | Citrate %var (UA 10µM, 48h): -36.91% | Cr %var (UA 10µM, 48h): -16.76% | Dimethylamine %var (UA 10µM, 48h): -53.26% | Formate %var (UA 10µM, 48h): 0% | Fumarate %var (UA 10µM, 48h): 0% | GPC %var (UA 10µM, 48h): 108.51% | GSH %var (UA 10µM, 48h): -30.60% | Gln %var (UA 10µM, 48h): 0% | Glu %var (UA 10µM, 48h): -21.17% | Glucose %var (UA 10µM, 48h): -71.26% | Glucose-1-phosphate %var (UA 10µM, 48h): -75.94% | Gly %var (UA 10µM, 48h): 40.31% | His %var (UA 10µM, 48h): 0% | Ile %var (UA 10µM, 48h): 211.80% | Lactate %var (UA 10µM, 48h): 0% | Leu %var (UA 10µM, 48h): 389.84% | NADH %var (UA 10µM, 48h): 34.09% | PC %var (UA 10µM, 48h): -26.30% | PCr %var (UA 10µM, 48h): 34.32% | Phe %var (UA 10µM, 48h): 22.52% | Pro %var (UA 10µM, 48h): 87.39% | Tyr %var (UA 10µM, 48h): 0% | UDP-GalNAc %var (UA 10µM, 48h): 62.26% | UDP-GlcNAc %var (UA 10µM, 48h): 60.69% | UDP-Glucose %var (UA 10µM, 48h): -19.78% | Val %var (UA 10µM, 48h): 151.36% | myo -Lno %var (UA 10µM, 48h): -13.14% | 1-MethyInicotinamide %var (UA 10µM, 48h+24h): 22.91% | 3-Hydroxyisobutyrate %var (UA 10µM, 48h+24h): -22.77% | ATP %var (UA 10µM, 48h+24h): 0% | Acetate %var (UA 10µM, 48h+24h): 0% | Ala %var (UA 10µM, 48h+24h): 0% | Asp %var (UA 10µM, 48h+24h): -26.58% | Choline %var (UA 10µM, 48h+24h): 0% | Citrate %var (UA 10µM, 48h+24h): -18.09% | Cr %var (UA 10µM, 48h+24h): 0% | Dimethylamine %var (UA 10µM, 48h+24h): -15.34% | Formate %var (UA 10µM, 48h+24h): 0% | Fumarate %var (UA 10µM, 48h+24h): -22.45% | GPC %var (UA 10µM, 48h+24h): -32.45% | GSH %var (UA 10µM, 48h+24h): -27.29% | Gln %var (UA 10µM, 48h+24h): 16.14% | Glu %var (UA 10µM, 48h+24h): 0% | Glucose %var (UA 10µM, 48h+24h): -31.96% | Glucose-1-phosphate %var (UA 10µM, 48h+24h): 0% | Gly %var (UA 10µM, 48h+24h): 24.70% | His %var (UA 10µM, 48h+24h): 0% | Ile %var (UA 10µM, 48h+24h): 58.71% | Lactate %var (UA 10µM, 48h+24h): 0% | Leu %var (UA 10µM, 48h+24h): 82.57% | NADH %var (UA 10µM, 48h+24h): 20.35% | PC %var (UA 10µM, 48h+24h): -38.35% | PCr %var (UA 10µM, 48h+24h): 24.82% | Phe %var (UA 10µM, 48h+24h): 16.59% | Pro %var (UA 10µM, 48h+24h): 49.66% | Tyr %var (UA 10µM, 48h+24h): 13.28% | UDP-GalNAc %var (UA 10µM, 48h+24h): 0% | UDP-GlcNAc %var (UA 10µM, 48h+24h): 0% | UDP-Glucose %var (UA 10µM, 48h+24h): 0% | Val %var (UA 10µM, 48h+24h): 47.98% | myo -Lno %var (UA 10µM, 48h+24h): 0% | 1-MethyInicotinamide %var (UA 20µM, 48h): 83.24% | 3-Hydroxyisobutyrate %var (UA 20µM, 48h): -30.93% | ATP %var (UA 20µM, 48h): 53.13% | Acetate %var (UA 20µM, 48h): 0% | Ala %var (UA 20µM, 48h): 0% | Asp %var (UA 20µM, 48h): -46.10% | Choline %var (UA 20µM, 48h): 30.58% | Citrate %var (UA 20µM, 48h): -38.52% | Cr %var (UA 20µM, 48h): 0% | Dimethylamine %var (UA 20µM, 48h): -41.93% | Formate %var (UA 20µM, 48h): 0% | Fumarate %var (UA 20µM, 48h): 0% | GPC %var (UA 20µM, 48h): 160.13% | GSH %var (UA 20µM, 48h): -21.64% | Gln %var (UA 20µM, 48h): 0% | Glu %var (UA 20µM, 48h): -23.01% | Glucose %var (UA 20µM, 48h): -85.89% | Glucose-1-phosphate %var (UA 20µM, 48h): -78.61% | Gly %var (UA 20µM, 48h): 38.29% | His %var (UA 20µM, 48h): 0% | Ile %var (UA 20µM, 48h): 156.93% | Lactate %var (UA 20µM, 48h): 0% | Leu %var (UA 20µM, 48h): 297.70% | NADH %var (UA 20µM, 48h): 46.21% | PCr %var (UA 20µM, 48h): 0% | Phe %var (UA 20µM, 48h): 0% | Pro %var (UA 20µM, 48h): 69.18% | Tyr %var (UA 20µM, 48h): 0% | UDP-GalNAc %var (UA 20µM, 48h): 68.87% | UDP-GlcNAc %var (UA 20µM, 48h): 61.45% | UDP-Glucose %var (UA 20µM, 48h): -32.23% | Val %var (UA 20µM, 48h): 101.22% | myo -Lno %var (UA 20µM, 48h): 0% | 1-MethyInicotinamide %var (UA 20µM, 48h+24h): 50.44% | 3-Hydroxyisobutyrate %var (UA 20µM, 48h+24h): -30.69% | ATP %var (UA 20µM, 48h+24h): 0% | Acetate %var (UA 20µM, 48h+24h): 10.61% | Ala %var (UA 20µM, 48h+24h): 0% | Asp %var (UA 20µM, 48h+24h): -37.26% | Choline %var (UA 20µM, 48h+24h): 0% | Citrate %var (UA 20µM, 48h+24h): -32.19% | Cr %var (UA 20µM, 48h+24h): 28.29% | Dimethylamine %var (UA 20µM, 48h+24h): -23.93% | Formate %var (UA 20µM, 48h+24h): 0% | Fumarate %var (UA 20µM, 48h+24h): -34.69% | GPC %var (UA 20µM, 48h+24h): 0% | GSH %var (UA 20µM, 48h+24h): -26.66% | Gln %var (UA 20µM, 48h+24h): 25.50% | Glu %var (UA 20µM, 48h+24h): -11.32% | Glucose %var (UA 20µM, 48h+24h): -67.35% | Glucose-1-phosphate %var (UA 20µM, 48h+24h): -40.85% | Gly %var (UA 20µM, 48h+24h): 31.50% | His %var (UA 20µM, 48h+24h): 0% | Ile %var (UA 20µM, 48h+24h): 94.71% | Lactate %var (UA 20µM, 48h+24h): 0% | Leu %var (UA 20µM, 48h+24h): 130.47% | NADH %var (UA 20µM, 48h+24h): 55.81% | PC %var (UA 20µM, 48h+24h): -38.16% | PCr %var (UA 20µM, 48h+24h): 0% | Phe %var (UA 20µM, 48h+24h): 27.29% | Pro %var (UA 20µM, 48h+24h): 78.81% | Tyr %var (UA 20µM, 48h+24h): 21.23% | UDP-GalNAc %var (UA 20µM, 48h+24h): 0% | UDP-GlcNAc %var (UA 20µM, 48h+24h): 0% | UDP-Glucose %var (UA 20µM, 48h+24h): -20.07% | Val %var (UA 20µM, 48h+24h): 70.45% | myo -Lno %var (UA 20µM, 48h+24h): 0% | number of metabolites altered (UA high concentration): 22 | number of metabolites altered (UA low concentration): 27
